Holding throughout (assay): NCI anticancer screen, dose series, 48 h
The test system of experiment [1] is HCC-2998 colon.
Experiment [2] has as its system SF-295 CNS.
The test system of experiment [3] is PC-3 prostate.
The test system of experiment [4] is OVCAR-3 ovarian.
Experiment [5] relates to HS 578T breast.
Experiment [6] has as its system K-562 leukemia.
Experiment [7] relates to SNB-19 CNS.
For experiment [8], the system named is IGROV1 ovarian.

Molecules are shown by their SMILES.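 48-hour exposure; five concentrations; linearly interpolated endpoints. The concentration for 50% growth inhibition is given as GI50. TGI marks complete inhibition of growth.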

For the compound `Cc1ccc(O)cc1Nc1ccnc2ccc(S(C)(=O)=O)cc12`, the GI50 in experiment [1] is 10 µM; in experiment [2] it was 3.34 µM; in experiment [3], 4.2 µM; in experiment [4], 4.82 µM; in experiment [5] it was 0.42 µM; in experiment [6] it was 0.161 µM. Besides, the GI50 in experiment [7] was 7.66 µM; in experiment [8], 0.478 µM. The TGI in experiment [1] is over 25 µM; in experiment [2] it was over 25 µM; in experiment [3], over 25 µM; in experiment [4], over 22.8 µM; in experiment [5], 4.25 µM; in experiment [6], over 25 µM. Besides, the TGI in experiment [7] is over 25 µM; in experiment [8] it was 2.12 µM.
On to `O=C1CC(c2ccccc2)Oc2ccccc21` (stereo not given), for which the TGI in experiment [1] was over 100 µM; in experiment [2] it was over 100 µM; in experiment [3] it was over 100 µM; in experiment [5], over 100 µM; in experiment [6], 32.6 µM; in experiment [7], 83.4 µM. Moreover, in experiment [8], the TGI is over 100 µM.
As for `N#Cc1nc2c(S(=O)(=O)c3ccc(Cl)cc3)c(N)n(Nc3cccc(Cl)c3)c2nc1C#N`, the GI50 in experiment [1] is 0.0161 µM; in experiment [2] it was 0.0427 µM; in experiment [3], 0.00279 µM; in experiment [6], 0.0309 µM; in experiment [7] it was 0.137 µM; in experiment [8] it was 0.0385 µM. For the same compound, the TGI in experiment [1] is over 100 µM; in experiment [2], 0.276 µM; in experiment [4], 0.0132 µM; in experiment [8], 0.179 µM.
`CCCCCOc1ccc(/C=N/Nc2cc(C)nc3ccc(Cl)cc23)cc1`: the GI50 in experiment [1] is 1.95 µM; in experiment [2] it was 1.77 µM; in experiment [3], 1.61 µM; in experiment [4], 1.97 µM; in experiment [6] it was 0.691 µM; in experiment [7], 1.87 µM. For the same compound, in experiment [8], the GI50 was 1.91 µM. Also, the TGI turned out to be 3.54 µM in experiment [1]; 3.34 µM in experiment [2]; 3.1 µM in experiment [3]; 3.58 µM in experiment [4]; 2.27 µM in experiment [6]; 3.41 µM in experiment [7]. The TGI in experiment [8] came to 3.6 µM.
Take `O=C(NCCNCCO)c1ccc2c(c1)oc1cc3ccccc3c(=O)n12`: the GI50 was over 50 µM in experiment [2]; 35.5 µM in experiment [3]; 46.7 µM in experiment [6]; over 50 µM in experiment [7]; 16.5 µM in experiment [8]. Also, the TGI in experiment [2], in experiment [3], in experiment [6], in experiment [7] and in experiment [8] was over 50 µM in each case.
Take `O=[N+]([O-])c1ccc(Cl)c2c([N+](=O)[O-])cccc12`: the TGI in experiment [1], in experiment [2], in experiment [3], in experiment [4], in experiment [6] and in experiment [7] was over 10 µM throughout. The same compound showed a TGI in experiment [8] of over 10 µM.
Consider `CCN(CC)CCCNc1ccc(C)c2sc3ccccc3c(=O)c12`, for which the GI50 in experiment [1] was 0.488 µM; in experiment [2] it was 0.808 µM; in experiment [3], 0.758 µM; in experiment [4] it was 3.42 µM; in experiment [5], 1.49 µM; in experiment [7] it was 1.03 µM. Moreover, the GI50 in experiment [8] was 1.22 µM. Also, the TGI in experiment [1] was 1.77 µM; in experiment [2], 2.22 µM; in experiment [3] it was 2.57 µM; in experiment [4], 16.2 µM; in experiment [5], 5.7 µM; in experiment [7], 2.71 µM. In experiment [8], this compound came in with a TGI of 2.92 µM.
As for `COC(=O)OC1C(O[C@H]2C[C@H]3[C@@H]4CC=C5C[C@@H](O)CC[C@]5(C)[C@H]4CC[C@]3(C)[C@H]2[C@H](C)C(=O)CCC(C)C)OCC(O)C1OC1OCC(O)C(O)C1OC(=O)c1ccc(OC)cc1` (stereo not given in full), the GI50 in experiment [1] was 1.44 µM; in experiment [2] it was under 0.00275 µM; in experiment [3], 0.00436 µM; in experiment [4], 0.345 µM; in experiment [5] it was under 0.00275 µM; in experiment [7], 0.0155 µM. Also, the GI50 in experiment [8] was 0.0106 µM. The TGI in experiment [1] is over 27.5 µM; in experiment [2] it was under 0.00275 µM; in experiment [3] it was 0.29 µM; in experiment [4], 16.8 µM; in experiment [5], 0.0416 µM; in experiment [7], 2.24 µM. The compound further yielded a TGI in experiment [8] of over 27.5 µM.
Take `COCC([C@@H](O)C(O)C(=O)NCC[C@@H](C)c1nc(/C=C/CC2OC3(C[C@H](O)C2C)OC(C(C[C@H](O)C(C)[C@H](O)C(C)/C=C(C)/C(C)=C/C=C/C(C)=C/C#N)OC)[C@@H](OP(=O)(O)O)C3(C)C)co1)N(C)C` (stereo not given in full): the TGI in experiment [1] came to 0.000325 µM; in experiment [2], 0.000328 µM; in experiment [3], 0.000321 µM; in experiment [4], 0.000326 µM; in experiment [5], 0.000391 µM; in experiment [7], 0.000343 µM. In addition, the TGI in experiment [8] came out at 0.000296 µM.
In the case of `FC(F)(F)Oc1cccc(-c2cc(NCCCCCCNc3cc(-c4cccc(OC(F)(F)F)c4)nc4ccc(N5CCCC5)cc34)c3cc(N4CCCC4)ccc3n2)c1`, the GI50 is 1.74 µM in experiment [1]; 1.69 µM in experiment [2]; 2.02 µM in experiment [3]; 1.83 µM in experiment [4]; 1.55 µM in experiment [7]; 1.52 µM in experiment [8]. Also, the TGI in experiment [1] came to 3.27 µM; in experiment [2], 3.11 µM; in experiment [3], 4.42 µM; in experiment [4] it was 3.24 µM; in experiment [7], 2.98 µM; in experiment [8], 3.12 µM.
For the compound `CC(Br)C(=O)NC(CO)C(=O)O` (stereo not given), the TGI in experiment [2], in experiment [3], in experiment [4], in experiment [5], in experiment [6] and in experiment [7] was over 100 µM each time. This compound also came in with a TGI in experiment [8] of over 100 µM.
For `COc1ccc2sc3c(NCCCN)nc4ccccc4c3c(=O)c2c1`, the GI50 is 1.66 µM in experiment [1]; 1.79 µM in experiment [2]; 1.5 µM in experiment [3]; 1.77 µM in experiment [4]; 1.11 µM in experiment [6]; 1.67 µM in experiment [8]. Further, the TGI in experiment [1] came to 3.34 µM; in experiment [2], 3.36 µM; in experiment [3], 3.05 µM; in experiment [4] it was 3.32 µM; in experiment [6], 3.4 µM; in experiment [8], 3.19 µM.

Source of the values: PubChem BioAssay (NCI).
